Results reported in patent US8759073B2, “Method for effectively controlling harmful organisms in large-scale culture of microalgae” (ENN Science & Technology Development Co., Ltd., priority 2009, dated 2014).
“Also recorded” adds a separate entry of the source.

How the values were obtained:
[1] = system: Chlorococcum sp.; assay: Growth of cultured algae after treatment, 60 L glass plate reactor
Experimental: pH of the normally cultured microalgae is adjusted into various ranges. The growth rate of the microalgae is measured and their appearance is observed under a microscope.
Chlorococcum sp. (obtained from Qingdao Marine Institute) was cultured (pH 8.0-9.0 for the normal culture) in a 60 L glass plate reactor (manufactured by Longfang Jiangchuan plexiglass Co. Ltd., OP=10 cm) under a sunlight film (with a temperature of about 25 °C, a humidity of 60%-80%, and an illumination of 8000-20000 lux). Modified BG11 medium (see Table 3) was used. […] CO2 was aerated continuously. […] Then air was sufficiently aerated, and pH was raised to 7.0-8.0 in 4 hours.
(§1) Chlorococcum sp. (obtained from Qingdao Marine Institute) was cultured in a 60 L glass plate reactor (manufactured by Longfang Jiangchuan plexiglass Co. Ltd., OP=10 cm) under a sunlight film (with a temperature of about 25 °C, a humidity of 60%-80%, and an illumination of 8000-20000 lux) (pH 8.0-9.0 for the normal culture). Modified BG11 medium (see Table 3) was used. […] Then CO2 was aerated and pH was adjusted to 7.0-8.0.
Chlorococcum sp. (obtained from Qingdao Marine Institute) was cultured in a 60 L glass plate reactor (manufactured by Longfang Jiangchuan plexiglass Co. Ltd., OP=10 cm) under a sunlight film (with a temperature of about 25 °C, a humidity of 60%-80%, and an illumination of 8000-20000 lux) (pH 8.0-9.0 for the normal culture). Modified BG11 medium (see Table 3) was used. […] One hour later, CO2 was aerated to saturation (about pH 5.6) for 24 hour continuously. […] Then air was sufficiently aerated.
as §1, with “air” for “CO2”, “sufficiently aerated.” for “aerated and pH was adjusted to 7.0-8.0.”
as §1
Chlorococcum sp. (obtained from Qingdao Marine Institute) was cultured in a 60 L glass plate reactor (manufactured by Longfang Jiangchuan plexiglass Co. Ltd., OP=10 cm) under a sunlight film (with a temperature of about 25 °C, a humidity of 60%-80%, and an illumination of 8000-20000 lux) (pH 8.0-9.0 for the normal culture). Modified BG11 medium (see Table 3) was used.

[2] = system: Nannochloris sp.; assay: Growth of cultured algae after treatment, 1.5 m^3 glass plate reactor; type: cell-based; settings: Example 9; CO2 periodically at an interval of 2 hours, 2 days
Experimental: Nannochloris sp. […] Modified BG11 medium (see Table 4) was used. […] Then CO2 was aerated periodically at an interval of 2 hours (pH ranged within 5.0-8.5).

[3] = system: Spirulina maxima; assay: Growth of cultured algae after treatment, 500 L raceway pond; type: cell-based; settings: Example 15; 1M ammonia pH 10.0 1 h, saturated CO2 23 h, then air
Experimental: Modified SM (see Table 2) was used. […] Then air was sufficiently aerated. Twenty-four hours later, the algae could resume to grow.
Modified SM (see Table 2) was used. […] One hour later, CO2 was aerated to saturation for 23 hour continuously (about pH 5.8). […] Then air was sufficiently aerated. Twenty-four hours later, the algae could resume to grow.

Compound: O=C=O [CO2, carbon dioxide]
- growth of the algae [1]: rarely affected
- time until algae started to grow after recovery of pH7.0 or above ([1]; pH 7): 8 hours
- time until algae resumed to grow after air aeration ([1]; pH 9): Eighteen
- growth rate of the algae [2]: rarely affected; also recorded: not affected
- time until algae resumed to grow after air aeration [3]: Twenty-four
